Assay [1] concerns the target T1, M1 muscarinic receptor (Homo sapiens, UniProt P11229).
T1 construct: expressed in transfected cells; host or cells: CHO (M1-CHO)
T1 sequence (P11229 1-460): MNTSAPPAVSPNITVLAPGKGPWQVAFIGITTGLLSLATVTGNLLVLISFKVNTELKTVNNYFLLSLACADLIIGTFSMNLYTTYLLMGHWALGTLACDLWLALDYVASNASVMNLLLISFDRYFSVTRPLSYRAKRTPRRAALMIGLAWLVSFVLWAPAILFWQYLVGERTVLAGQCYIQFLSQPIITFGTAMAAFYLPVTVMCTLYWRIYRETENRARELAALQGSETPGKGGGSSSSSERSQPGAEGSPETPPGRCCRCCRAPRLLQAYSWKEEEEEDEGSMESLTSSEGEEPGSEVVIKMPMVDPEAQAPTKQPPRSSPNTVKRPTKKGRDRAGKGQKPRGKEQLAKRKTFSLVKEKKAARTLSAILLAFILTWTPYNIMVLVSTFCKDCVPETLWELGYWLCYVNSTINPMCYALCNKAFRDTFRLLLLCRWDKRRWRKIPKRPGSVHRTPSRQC
Kind of assay: Functional mobilization of intracellular calcium (FLIPR), M1-CHO cells. It counts as cell-based. The note with it: for Emax: 100% efficacy is the maximum response obtained using Carbachol as a control; for M1 Activity: M1-CHO cells, FLIPR calcium mobilization. In a few lines: (§1)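 CHO cells expressing M1 or M4, loaded with Fluo-3 AM or Calcium 3 dye with 1 mM probenecid, 0.5% DMSO final. Agonist mode: compound added directly; antagonist mode: 15 min pre-incubation (or co-application) before carbachol at EC80. Fluorescence recorded 60 s on FLIPR.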

The target of assay [2] is T2, M4 muscarinic receptor (Homo sapiens, UniProt P08173).
T2 construct: expressed in transfected cells; host or cells: CHO (M4-CHO)
T2 sequence (P08173 1-479): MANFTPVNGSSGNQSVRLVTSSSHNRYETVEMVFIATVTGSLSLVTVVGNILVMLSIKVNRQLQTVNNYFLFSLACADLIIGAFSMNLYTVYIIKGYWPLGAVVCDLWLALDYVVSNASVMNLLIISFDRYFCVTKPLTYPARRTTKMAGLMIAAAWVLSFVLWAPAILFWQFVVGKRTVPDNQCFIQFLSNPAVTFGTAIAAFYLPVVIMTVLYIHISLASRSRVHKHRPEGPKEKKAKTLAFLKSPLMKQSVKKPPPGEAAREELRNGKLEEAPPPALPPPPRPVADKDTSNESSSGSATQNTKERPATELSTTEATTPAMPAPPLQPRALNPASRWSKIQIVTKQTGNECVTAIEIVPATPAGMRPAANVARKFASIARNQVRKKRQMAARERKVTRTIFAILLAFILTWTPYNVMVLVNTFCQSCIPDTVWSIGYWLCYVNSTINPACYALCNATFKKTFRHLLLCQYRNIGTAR
Kind of assay: Functional mobilization of intracellular calcium (FLIPR), M4-CHO cells. In kind it is cell-based. The settings on record: for Emax: 100% efficacy is the maximum response obtained using Carbachol as a control; for M4 Activity: M4-CHO cells, FLIPR calcium mobilization. Put shortly:
as §1

Some results are limits rather than exact numbers.

The results in this text go back to patent US7863449B2, “Modulators of muscarinic receptors” (Vertex Pharmaceuticals Incorporated, priority 2004, dated 2011).

For the molecule `CCOC(=O)N1CC[C@@H](CN2CCC3(CC2)CN(C(C)=O)Cc2ccccc23)C1` [compound 216], in assay [1], the Emax lay in the range of 25 to 100% and the “M1 Activity” value is given as “+++ (activity was measured to be less than 1.0 μM)”. In assay [2], the Emax was in the range of 25 to 100% and the “M4 Activity” value is reported as “+++ (activity was measured to be less than 1.0 μM)”.

For `CC(=O)N1Cc2ccccc2C2(CCN(Cc3cc4ccccc4o3)CC2)C1` [compound 217], in assay [1], the maximal effect (Emax) was less than 25% and the “M1 Activity” value was “+ (activity was measured to be greater than 5.0 μM)”. Moreover, in assay [2], the maximal response (Emax) was less than 25% and the “M4 Activity” value is “+ (activity was measured to be greater than 5.0 μM)”.

Take `CCOC(=O)N1C2CCC1CC(N1CCC3(CC1)CN(S(=O)(=O)Cc1ccccc1)Cc1ccccc13)C2` (stereo not shown) [compound 218]: in assay [1], the maximum response (Emax) lay in the range of 25 to 100% and the “M1 Activity” value is given as “+++ (activity was measured to be less than 1.0 μM)”. In assay [2], the maximal response (Emax) fell in the range of 25 to 100% and the “M4 Activity” value is “+++ (activity was measured to be less than 1.0 μM)”.

As to `CCOC(=O)N1C2CCC1CC(N1CCC3(CC1)CN(C(=O)c1cc(C)n(C)n1)Cc1ccccc13)C2` (stereo not shown) [compound 219], in assay [1], the maximal effect (Emax) was in the range of 25 to 100% and the “M1 Activity” value is on record as “+++ (activity was measured to be less than 1.0 μM)”. In addition, in assay [2], the maximal effect (Emax) was in the range of 25 to 100% and the “M4 Activity” value is on record as “+++ (activity was measured to be less than 1.0 μM)”.

Turning to `CCOC(=O)N1C2CCC1CC(N1CCC3(CC1)CN(C(=O)c1snnc1C(C)C)Cc1ccccc13)C2` (stereo not shown) [compound 220], in assay [1], the Emax was 25 to 100% and the “M1 Activity” value is “+++ (activity was measured to be less than 1.0 μM)”. In addition, in assay [2], the maximal effect (Emax) lay within 25 to 100% and the “M4 Activity” value is on record as “+++ (activity was measured to be less than 1.0 μM)”.

As for `CCOC(=O)N1CCC(N2CCC3(CC2)CN(C(=O)c2ccccc2)Cc2ccccc23)CC1` [compound 221], in assay [1], the Emax is 25 to 100% and the “M1 Activity” value was “+++ (activity was measured to be less than 1.0 μM)”. Further, in assay [2], the Emax lay in the range of 25 to 100% and the “M4 Activity” value is “+++ (activity was measured to be less than 1.0 μM)”.

`CS(=O)(=O)N1Cc2ccccc2C2(CCN(C3CC4CCC(C3)N4C(=O)O[C@@H]3CCOC3)CC2)C1` (stereo partly shown) [compound 222]: in assay [1], the maximal response (Emax) lay within 25 to 100% and the “M1 Activity” value is given as “+++ (activity was measured to be less than 1.0 μM)”. Besides, in assay [2], the Emax is 25 to 100% and the “M4 Activity” value was “+++ (activity was measured to be less than 1.0 μM)”.

As for `Cc1cc(C(=O)N2Cc3ccccc3C3(CCN(C4CC5CCC(C4)N5C(=O)OC4CCC4)CC3)C2)nn1C` (stereo not shown) [compound 223], in assay [1], the maximal effect (Emax) was in the range of 25 to 100% and the “M1 Activity” value was “+++ (activity was measured to be less than 1.0 μM)”. Further, in assay [2], the maximal effect (Emax) was 25 to 100% and the “M4 Activity” value is listed as “+++ (activity was measured to be less than 1.0 μM)”.

`CCOC(=O)N1C2CCC1CC(N1CCC3(CC1)CN(C(=O)C1CC1)Cc1ccccc13)C2.Cl` (stereo not shown) [compound 224, Ethyl 3-(2-(cyclopropanecarbonyl)-2,3-dihydro-1H-spiro[isoquinoline-4,4′-piperidine]-1′-yl)-8-azabicyclo-[3.2.1]octane-8-carboxylate hydrochloride]: in assay [1], the maximal effect (Emax) lay in the range of 25 to 100% and the “M1 Activity” value is on record as “+++ (activity was measured to be less than 1.0 μM)”. Moreover, in assay [2], the maximal response (Emax) fell in the range of 25 to 100% and the “M4 Activity” value was “+++ (activity was measured to be less than 1.0 μM)”.

Turning to `CCOC(=O)N1CCC(N2CCC3(CC2)CN(C(=O)c2cnon2)Cc2ccccc23)CC1` [compound 225], in assay [1], the Emax lay in the range of 25 to 100% and the “M1 Activity” value was “+++ (activity was measured to be less than 1.0 μM)”. In assay [2], the Emax was 25 to 100% and the “M4 Activity” value is listed as “+++ (activity was measured to be less than 1.0 μM)”.

For `O=C1c2ccccc2C2(CCN([C@@H]3C[C@@H]4CC[C@@H]3C4)CC2)N1Cc1ccccc1` [compound 227], in assay [1], the maximal effect (Emax) was less than 25% and the “M1 Activity” value is listed as “+ (activity was measured to be greater than 5.0 μM)”. Also, in assay [2], the Emax is less than 25% and the “M4 Activity” value was “+ (activity was measured to be greater than 5.0 μM)”.

In the case of `CCOC(=O)N1CCC(N2CCC3(CC2)CN(C(=O)CC(C)C)Cc2ccccc23)CC1` [compound 229], in assay [1], the Emax lay in the range of 25 to 100% and the “M1 Activity” value was “+++ (activity was measured to be less than 1.0 μM)”. In assay [2], the maximum response (Emax) was in the range of 25 to 100% and the “M4 Activity” value is “+++ (activity was measured to be less than 1.0 μM)”.

With `CCOC(=O)N1CCC(N2CCC3(CC2)OC(=O)c2cc(Cl)ccc23)CC1` [compound 230], in assay [1], the Emax is 25 to 100% and the “M1 Activity” value is reported as “+++ (activity was measured to be less than 1.0 μM)”. Besides, in assay [2], the maximal effect (Emax) was 25 to 100% and the “M4 Activity” value is “++ (activity was measured to be from 1.0 μM to 5.0 μM)”.

For the molecule `CCOC(=O)N1C2CCC1CC(N1CCC3(CC1)CN(C(=O)Nc1c(C)noc1C)Cc1ccccc13)C2.Cl` (stereo not shown) [compound 233, Ethyl 3-(2-(3,5-dimethylisoxazol-4-ylcarbamoyl)-2,3-dihydro-1H -spiro[isoquinoline-4,4′-piperidine]-1′-yl)-8-azabicyclo[3.2.1]octane-8-carboxylate hydrochloride], in assay [1], the Emax was in the range of 25 to 100% and the “M1 Activity” value was “+++ (activity was measured to be less than 1.0 μM)”. In assay [2], the Emax fell in the range of 25 to 100% and the “M4 Activity” value was “+++ (activity was measured to be less than 1.0 μM)”.

For the molecule `CCOC(=O)N1CCC(N2CCC3(CC2)CN(C(=O)OC)Cc2ccccc23)CC1` [compound 240], in assay [1], the Emax fell in the range of 25 to 100% and the “M1 Activity” value is “+++ (activity was measured to be less than 1.0 μM)”. In addition, in assay [2], the Emax is 25 to 100% and the “M4 Activity” value is on record as “+++ (activity was measured to be less than 1.0 μM)”.

Turning to `CC(C)OC(=O)N1C2CCC1CC(N1CCC3(CC1)CN(S(=O)(=O)N(C)C)Cc1ccccc13)C2` (stereo not shown) [compound 241], in assay [1], the Emax was 25 to 100% and the “M1 Activity” value is listed as “+++ (activity was measured to be less than 1.0 μM)”. In assay [2], the Emax is 25 to 100% and the “M4 Activity” value is recorded as “+++ (activity was measured to be less than 1.0 μM)”.

Turning to `CCOC(=O)N1CCC(N2CCC3(CC2)CN(C(=O)N(CC)CC)Cc2ccccc23)CC1` [compound 242], in assay [1], the Emax lay in the range of 25 to 100% and the “M1 Activity” value was “+++ (activity was measured to be less than 1.0 μM)”. In assay [2], the Emax is less than 25% and the “M4 Activity” value is given as “+ (activity was measured to be greater than 5.0 μM)”.

Turning to `CC(=O)N1Cc2ccccc2C2(CCN(CC3CCN(C(=O)O[C@H]4CCOC4)CC3)CC2)C1` [compound 243], in assay [1], the maximal response (Emax) was less than 25% and the “M1 Activity” value was “+ (activity was measured to be greater than 5.0 μM)”. In assay [2], the Emax is less than 25% and the “M4 Activity” value was “+ (activity was measured to be greater than 5.0 μM)”.

For `CCOC(=O)N1C2CCC1CC(N1CCC3(CC1)CN(C(=O)C1(C)CC1)Cc1ccccc13)C2` (stereo not shown) [compound 244], in assay [1], the Emax is 25 to 100% and the “M1 Activity” value is listed as “+++ (activity was measured to be less than 1.0 μM)”. In addition, in assay [2], the maximum response (Emax) fell in the range of 25 to 100% and the “M4 Activity” value is reported as “+++ (activity was measured to be less than 1.0 μM)”.

On to `CCOC(=O)N1C2CCC1CC(N1CCC3(CC1)CN(S(=O)(=O)c1ccc(-c4ccccc4)cc1)Cc1ccccc13)C2` (stereo not shown) [compound 245], for which, in assay [1], the Emax is 25 to 100% and the “M1 Activity” value is listed as “++ (activity was measured to be from 1.0 μM to 5.0 μM)”. In assay [2], the Emax fell in the range of 25 to 100% and the “M4 Activity” value is “++ (activity was measured to be from 1.0 μM to 5.0 μM)”.

As for `CCOC(=O)N1C2CCC1CC(N1CCC3(CC1)CN(S(=O)(=O)c1c(C)noc1C)Cc1ccccc13)C2` (stereo not shown) [compound 246], in assay [1], the Emax lay in the range of 25 to 100% and the “M1 Activity” value is reported as “+++ (activity was measured to be less than 1.0 μM)”. Further, in assay [2], the Emax is more than 100% and the “M4 Activity” value is “+++ (activity was measured to be less than 1.0 μM)”.

Turning to `CC(=O)N1Cc2ccccc2C2(CCN(Cc3cccc(F)c3)CC2)C1` [compound 247], in assay [1], the maximum response (Emax) was less than 25% and the “M1 Activity” value was “+ (activity was measured to be greater than 5.0 μM)”. For the same molecule, in assay [2], the Emax is less than 25% and the “M4 Activity” value is “+ (activity was measured to be greater than 5.0 μM)”.
